# Source: ChEMBL document CHEMBL1148617, “Design, synthesis, and structure-activity relationships of 1-,3-,8-, and 9-substituted-9-deazaxanthines at the human A2B adenosine receptor” (J Med Chem, 2006)
# Columns and labels:
# Adenosine receptor A2a [1] = target: T1, Adenosine receptor A2a (Homo sapiens, UniProt P29274)
# Description: Binding affinity to recombinant human adenosine A2A receptor
# Adenosine receptor A2b = target: T2, Adenosine receptor A2b (Homo sapiens, UniProt P29275)
# T2 sequence (P29275 whole entry): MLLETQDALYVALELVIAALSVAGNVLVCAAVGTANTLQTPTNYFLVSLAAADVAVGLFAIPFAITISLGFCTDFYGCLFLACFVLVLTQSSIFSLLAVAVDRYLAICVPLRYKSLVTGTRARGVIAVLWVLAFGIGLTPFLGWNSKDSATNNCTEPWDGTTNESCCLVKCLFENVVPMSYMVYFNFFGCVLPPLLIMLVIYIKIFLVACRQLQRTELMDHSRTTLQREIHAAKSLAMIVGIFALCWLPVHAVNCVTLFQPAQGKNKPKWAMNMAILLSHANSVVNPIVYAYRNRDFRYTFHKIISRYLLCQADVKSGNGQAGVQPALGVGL
# Description: Binding affinity to recombinant human adenosine A2B receptor
# [2] = target: T3, Adenosine receptor A2b (Homo sapiens) (UniProt P29275); test: Displacement of [3H]DPCPX from recombinant human adenosine A2B receptor expressed in HEK293 cells at 0.01 uM
# T3 sequence (whole entry): T2 sequence (P29275 whole entry)
# [3] = target: T3, Adenosine receptor A2b (Homo sapiens); test: Displacement of [3H]DPCPX from recombinant human adenosine A2B receptor expressed in HEK293 cells at 0.1 uM; assay type: cell-based
# Adenosine receptor A2a [4] = target: T1, Adenosine receptor A2a; test: Displacement of [3H]ZM-241385 from recombinant human adenosine A2A receptor expressed in HeLa cells at 0.1 uM
# T1 sequence (P29274 whole entry): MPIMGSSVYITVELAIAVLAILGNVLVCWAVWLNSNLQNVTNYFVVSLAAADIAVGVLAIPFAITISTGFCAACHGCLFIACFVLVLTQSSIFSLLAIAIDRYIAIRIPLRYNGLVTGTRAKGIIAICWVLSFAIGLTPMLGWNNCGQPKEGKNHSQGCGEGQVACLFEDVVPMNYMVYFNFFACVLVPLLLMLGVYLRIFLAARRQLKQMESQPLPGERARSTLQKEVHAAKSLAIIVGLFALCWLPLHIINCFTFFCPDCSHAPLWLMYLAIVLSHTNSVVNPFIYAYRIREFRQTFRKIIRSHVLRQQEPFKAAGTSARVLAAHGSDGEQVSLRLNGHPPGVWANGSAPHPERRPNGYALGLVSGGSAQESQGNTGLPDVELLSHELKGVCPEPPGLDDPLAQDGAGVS
Ki (Adenosine receptor A2a [1]) [µM],Ki (Adenosine receptor A2b) [µM],inhibition [2] [%],inhibition [3] [%],inhibition (Adenosine receptor A2a [4]) [%],Compound
0.49,0.0631,13,67,13,CCCn1c(=O)c2[nH]c(-c3ccc(OCC(=O)Nc4ccc(C=O)cc4)cc3)cc2n(CCC)c1=O
0.324,0.0209,37,82,32,CCCn1c(=O)c2[nH]c(-c3ccc(OCC(=O)Nc4ncccc4O)cc3)cc2n(CCC)c1=O
0.275,0.0126,40,85,29,CCCn1c(=O)c2[nH]c(-c3ccc(OCC(=O)Nc4ccc(C)cn4)cc3)cc2n(CCC)c1=O
0.1,0.0562,6,57,30,CCCn1c(=O)c2[nH]c(-c3ccc(OCC(=O)Nc4ccc(C(=O)OCC)cc4)cc3)cc2n(CCC)c1=O
0.724,0.141,5,30,2,CCCn1c(=O)c2[nH]c(-c3ccc(OCC(=O)Nc4ccccc4F)cc3)c(Cl)c2n(CCC)c1=O
0.282,0.0174,10,85,27,CCCn1c(=O)c2[nH]c(-c3ccc(OCC(=O)Nc4ccc(S(=O)(=O)c5ccccc5)cc4)cc3)cc2n(CCC)c1=O
0.012,0.00331,70,96,62,CCCn1c(=O)c2[nH]c(-c3ccc(OCC(=O)Nc4ccc(F)cc4)cc3)cc2n(CCC)c1=O
0.309,0.0269,33,83,34,CCCn1c(=O)c2[nH]c(-c3ccc(OCC(=O)Nc4ccccn4)cc3)cc2n(CCC)c1=O
0.224,0.00933,47,92,6,CCCn1c(=O)c2[nH]c(-c3ccc(OCC(=O)Nc4ccccc4)cc3)cc2n(CCC)c1=O
0.0427,0.0245,16,73,54,CCCn1c(=O)c2[nH]c(-c3ccc(OCC(=O)Nc4ccccc4)cc3)c(Br)c2n(CCC)c1=O
0.0851,0.0525,8,43,21,CCCn1c(=O)c2[nH]c(-c3ccc(OCC(=O)Nc4ccc(C(C)=O)cc4)cc3)c(Cl)c2n(CCC)c1=O
0.0794,0.00794,51,94,47,CCCn1c(=O)c2[nH]c(-c3ccc(OCC(=O)Nc4ccc(C(C)(C)C)cc4)cc3)cc2n(CCC)c1=O
0.263,0.0832,5,44,23,CCCn1c(=O)c2[nH]c(-c3ccc(OCC(=O)Nc4ccccc4Cl)cc3)c(Cl)c2n(CCC)c1=O
0.158,0.0195,30,80,57,CCCn1c(=O)c2[nH]c(-c3ccc(OCC(=O)Nc4ccc(I)cc4)cc3)cc2n(CCC)c1=O
0.126,0.0245,15,73,37,CCCn1c(=O)c2[nH]c(-c3ccc(OCC(=O)Nc4ccc(Br)cc4)cc3)c(Cl)c2n(CCC)c1=O
0.107,0.0107,41,84,50,CCCn1c(=O)c2[nH]c(-c3ccc(OCC(=O)Nc4ccc(OC)nc4)cc3)cc2n(CCC)c1=O
0.708,0.0912,4,52,8,CCCn1c(=O)c2[nH]c(-c3ccc(OCC(=O)Nc4ccc([N+](C)(C)C)cc4)cc3)cc2n(CCC)c1=O
0.0324,0.0186,38,78,50,CCCn1c(=O)c2[nH]c(-c3ccc(OCC(=O)Nc4ccc(C)cc4)cc3)c(Cl)c2n(CCC)c1=O
0.245,0.0603,6,46,20,CCCn1c(=O)c2[nH]c(-c3ccc(OCC(=O)Nc4cccc(F)c4)cc3)c(Cl)c2n(CCC)c1=O
0.0741,0.0372,11,57,37,CCCn1c(=O)c2[nH]c(-c3ccc(OCC(=O)Nc4ccccc4)cc3)c(Cl)c2n(CCC)c1=O

# Further lines, the compound ahead of its results:
Compound,Ki (Adenosine receptor A2a [1]) [µM],Ki (Adenosine receptor A2b) [µM],inhibition [2] [%],inhibition [3] [%],inhibition (Adenosine receptor A2a [4]) [%]
CCCn1c(=O)c2[nH]c(-c3ccc(OC(CC)C(=O)Nc4ccccc4)cc3)cc2n(CCC)c1=O (stereo not given),0.0257,0.00977,48,93,88
COc1cc(OCC(=O)Nc2ccccc2)ccc1-c1cc2c([nH]1)c(=O)n(C)c(=O)n2C,1.05,0.0692,12,55,13
CCCn1c(=O)c2[nH]c(-c3ccc(N(C=O)CC(=O)Nc4ccc(Br)cc4)cc3)cc2n(CCC)c1=O,0.0355,0.00776,48,93,90
CCCn1c(=O)c2[nH]c(-c3ccc(OCC(=O)Nc4ccc(C5=NC(C)(C)CO5)cc4)cc3)cc2n(CCC)c1=O,0.0912,0.0347,11,67,25
CCCn1c(=O)c2[nH]c(-c3ccc(OC(C)C(=O)NCc4ccc(Cl)cc4)cc3)cc2n(CCC)c1=O (stereo not given),0.0468,0.00407,55,94,57
COCCCn1c(=O)n(C)c(=O)c2[nH]c(-c3ccc(OCC(=O)NC4CCCC4)cc3)cc21,0.427,0.263,8,16,0
COc1cc(OCC(=O)Nc2ccc(F)cc2)ccc1-c1cc2c([nH]1)c(=O)n(C)c(=O)n2C,0.0955,0.0251,23,63,31
Cn1c(=O)c2[nH]c(-c3ccc(OCC(=O)Nc4ccc([N+](=O)[O-])cc4)cc3)cc2n(C)c1=O,0.0813,0.00692,52,82,30
Cn1c(=O)c2[nH]c(-c3cccc(OCC(=O)Nc4ccccc4)c3)cc2n(C)c1=O,0.204,0.166,10,35,32
Cn1c(=O)c2[nH]c(-c3ccc(OCC(=O)NC4CCc5ccccc54)cc3)cc2n(C)c1=O (stereo not given),0.214,0.0224,30,74,20
CCn1c(=O)c2[nH]c(-c3ccc(OCC(=O)Nc4ccc(C#N)cc4)cc3)cc2n(CC)c1=O,0.12,0.0135,20,79,2
Cn1c(=O)c2[nH]c(-c3ccc(OCC(=O)NCc4ccco4)cc3)cc2n(C)c1=O,0.316,0.0708,10,52,13
CCCn1c(=O)c2[nH]c(-c3ccc(OC(C)C(=O)Nc4ccccc4)cc3)cc2n(CCC)c1=O (stereo not given),0.105,0.00513,50,92,42
CCCn1c(=O)c2[nH]c(-c3ccc(OCC(=O)c4c(NC(=O)O)n(C)c(=O)n(C)c4=O)cc3)cc2n(CCC)c1=O,0.0794,0.1,24,59,61
CCCn1c(=O)c2[nH]c(-c3ccc(OCC(=O)Nc4ccc(CC(=O)OCC)cc4)cc3)cc2n(CCC)c1=O,0.24,0.0603,32,58,10
Cn1c(=O)c2[nH]c(-c3ccc(OCC(=O)NCc4ccc(F)cc4)cc3)cc2n(C)c1=O,0.0437,0.017,36,95,56
CCCn1c(=O)c2[nH]c(-c3ccc(OCC(=O)Nc4ccc(OC)nc4)cc3)cc2n(C)c1=O,0.132,0.00316,57,99,30
CCCn1c(=O)c2[nH]c(-c3ccc(OC(C)C(=O)Nc4ccc(F)cc4)cc3)cc2n(CCC)c1=O (stereo not given),0.0589,0.00324,62,88,51
CC(Oc1ccc(-c2cc3c([nH]2)c(=O)n(C)c(=O)n3C)cc1)C(=O)Nc1ccc(Br)cc1 (stereo not given),0.0269,0.00155,89,93,77
CCCn1c(=O)c2[nH]c(-c3ccc(OCC(=O)Nc4ccc(C(=O)NCCc5ccc(OC)cc5)cc4)cc3)cc2n(CCC)c1=O,0.427,0.0123,21,74,13
CCCn1c(=O)c2[nH]c(-c3ccc(OCC(=O)Nc4cc(OC)nc(OC)n4)cc3)cc2n(CCC)c1=O,0.0891,0.011,30,80,41
